Measured values published in ChEMBL document CHEMBL1201862, “PubChem BioAssay data set” (2004).
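A five-concentration, 48-hour dose response in 96-well plates underlies each endpoint, interpolated linearly between surrounding concentrations. GI50 is the concentration that inhibits growth by half.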 The source made the active and inactive calls. Cut-off read from the data, not from the text of the source: active = GI50 up to about 1.1 µM and inactive = higher.

Assays:
Assay in all cases: NCI-60 cell line screen, 48 h
NCI-H460 = tested on: NCI-H460
DU-145 = tested on: DU-145
NCI-H23 = tested on: NCI-H23
SNB-19 = tested on: SNB-19
Malme-3M = tested on: Malme-3M
OVCAR-8 = tested on: OVCAR-8
SF-295 = tested on: SF-295
SN12C = tested on: SN12C
UO-31 = tested on: UO-31
NCI-H522 = tested on: NCI-H522
A549 = tested on: A549
HT-29 = tested on: HT-29
KM12 = tested on: KM12
786-0 = tested on: 786-0
RXF 393 = tested on: RXF 393
MDA-MB-231 = tested on: MDA-MB-231
K562 = tested on: K562
HCT-15 = tested on: HCT-15
HL-60 = tested on: HL-60
CCRF-CEM = tested on: CCRF-CEM
HOP-92 = tested on: HOP-92
EKVX = tested on: EKVX
SK-MEL-2 = tested on: SK-MEL-2
OVCAR-4 = tested on: OVCAR-4
MOLT-4 = tested on: MOLT-4
ACHN = tested on: ACHN
COLO 205 = tested on: COLO 205
SF-268 = tested on: SF-268
PC-3 = tested on: PC-3
NCI/ADR-RES = tested on: NCI/ADR-RES
MCF7 = tested on: MCF7
M14 = tested on: M14
HCT-116 = tested on: HCT-116
RPMI-8226 = tested on: RPMI-8226
CAKI-1 = tested on: CAKI-1
HOP-62 = tested on: HOP-62
UACC-62 = tested on: UACC-62
UACC-257 = tested on: UACC-257
IGROV-1 = tested on: IGROV-1
SF-539 = tested on: SF-539
OVCAR-5 = tested on: OVCAR-5
U-251 = tested on: U-251
SR = tested on: SR
NCI-H226 = tested on: NCI-H226
T47D = tested on: T47D
MDA-N = tested on: MDA-N
SNB-75 = tested on: SNB-75
A498 = tested on: A498
HCC 2998 = tested on: HCC 2998
OVCAR-3 = tested on: OVCAR-3
SK-MEL-5 = tested on: SK-MEL-5
SK-OV-3 = tested on: SK-OV-3
Hs-578T = tested on: Hs-578T
SW-620 = tested on: SW-620
MDA-MB-435 = tested on: MDA-MB-435
SK-MEL-28 = tested on: SK-MEL-28
LOX IMVI = tested on: LOX IMVI
TK-10 = tested on: TK-10

Cc1cn(C2CC(OP(=O)(O)OCC3OC(n4c[n+]([BH2-]C#N)c5c(=O)[nH]c(N)nc54)CC3O)C(CO)O2)c(=O)[nH]c1=O (stereo unspecified)
GI50 (NCI-H460): > 100 µM (inactive)
GI50 (DU-145): > 100 µM (inactive)
GI50 (NCI-H23): > 100 µM (inactive)
GI50 (SNB-19): > 100 µM (inactive)
GI50 (Malme-3M): > 100 µM (inactive)
GI50 (OVCAR-8): > 100 µM (inactive)
GI50 (SF-295): > 100 µM (inactive)
GI50 (SN12C): > 100 µM (inactive)
GI50 (UO-31): > 100 µM (inactive)
GI50 (NCI-H522): > 100 µM (inactive)
GI50 (A549): > 100 µM (inactive)
GI50 (HT-29): > 100 µM (inactive)
GI50 (KM12): > 100 µM (inactive)
GI50 (786-0): > 100 µM (inactive)
GI50 (RXF 393): > 100 µM (inactive)
GI50 (MDA-MB-231): > 100 µM (inactive)
GI50 (K562): > 100 µM (inactive)
GI50 (HCT-15): > 100 µM
GI50 (HL-60): > 100 µM (inactive)
GI50 (CCRF-CEM): > 100 µM (inactive)
GI50 (HOP-92): > 100 µM (inactive)
GI50 (EKVX): > 100 µM (inactive)
GI50 (SK-MEL-2): > 100 µM (inactive)
GI50 (OVCAR-4): > 100 µM (inactive)
GI50 (MOLT-4): > 100 µM (inactive)
GI50 (ACHN): > 100 µM (inactive)
GI50 (COLO 205): > 100 µM (inactive)
GI50 (SF-268): > 100 µM (inactive)
GI50 (PC-3): > 100 µM (inactive)
GI50 (NCI/ADR-RES): > 100 µM (inactive)
GI50 (MCF7): > 100 µM (inactive)
GI50 (M14): > 100 µM (inactive)
GI50 (HCT-116): > 100 µM (inactive)
GI50 (RPMI-8226): > 100 µM (inactive)
GI50 (CAKI-1): > 100 µM (inactive)
GI50 (HOP-62): > 100 µM (inactive)
GI50 (UACC-62): > 100 µM (inactive)
GI50 (UACC-257): > 100 µM (inactive)
GI50 (IGROV-1): > 100 µM (inactive)
GI50 (SF-539): > 100 µM (inactive)
GI50 (OVCAR-5): > 100 µM (inactive)
GI50 (U-251): > 100 µM (inactive)
GI50 (SR): > 100 µM (inactive)
GI50 (NCI-H226): > 100 µM (inactive)
GI50 (T47D): > 100 µM (inactive)
GI50 (MDA-N): > 100 µM (inactive)
GI50 (SNB-75): > 100 µM (inactive)
GI50 (A498): > 100 µM (inactive)
GI50 (HCC 2998): > 100 µM (inactive)
GI50 (OVCAR-3): > 100 µM (inactive)
GI50 (SK-MEL-5): > 100 µM (inactive)

COc1cccc2c1[C@H](OC)[C@]13O[C@@]1(C2=O)[C@H](O)[C@H](C)[C@@](O)(C(=O)[C@@H]1O[C@H]1C)[C@@H]3O
GI50 (DU-145): 0.282 µM (active)
GI50 (NCI-H23): 0.196 µM (active)
GI50 (Malme-3M): 0.169 µM (active)
GI50 (OVCAR-8): 0.217 µM (active)
GI50 (SF-295): 0.218 µM (active)
GI50 (NCI-H522): 0.185 µM (active)
GI50 (A549): 0.199 µM (active)
GI50 (KM12): 0.318 µM (active)
GI50 (786-0): 0.264 µM (active)
GI50 (RXF 393): 0.245 µM (active)
GI50 (MDA-MB-231): 0.202 µM (active)
GI50 (SK-OV-3): 0.21 µM (active)
GI50 (Hs-578T): 0.235 µM (active)
GI50 (K562): 0.259 µM (active)
GI50 (SW-620): 0.21 µM (active)
GI50 (HCT-15): 0.255 µM
GI50 (HL-60): 0.31 µM (active)
GI50 (CCRF-CEM): 0.155 µM (active)
GI50 (MDA-MB-435): 0.214 µM (active)
GI50 (HOP-92): 0.194 µM (active)
GI50 (EKVX): 0.187 µM (active)
GI50 (SK-MEL-2): 0.175 µM (active)
GI50 (OVCAR-4): 0.208 µM (active)
GI50 (MOLT-4): 0.299 µM (active)
GI50 (ACHN): 0.211 µM (active)
GI50 (COLO 205): 0.165 µM (active)
GI50 (SF-268): 0.246 µM (active)
GI50 (PC-3): 0.266 µM (active)
GI50 (NCI/ADR-RES): 0.337 µM (active)
GI50 (MCF7): 0.294 µM (active)
GI50 (SK-MEL-28): 0.23 µM (active)
GI50 (RPMI-8226): 0.172 µM (active)
GI50 (HOP-62): 0.232 µM (active)
GI50 (UACC-62): 0.298 µM (active)
GI50 (UACC-257): 0.225 µM (active)
GI50 (LOX IMVI): 0.237 µM (active)
GI50 (IGROV-1): 0.229 µM (active)
GI50 (U-251): 0.303 µM (active)
GI50 (NCI-H226): 0.335 µM (active)
GI50 (T47D): 0.313 µM (active)
GI50 (MDA-N): 0.265 µM (active)
GI50 (A498): 0.253 µM (active)
GI50 (OVCAR-3): 0.276 µM (active)
GI50 (SK-MEL-5): 0.172 µM (active)
GI50 (TK-10): 0.318 µM (active)
